Measurements published in patent US6924300B2, “Oxyiminoalkanoic acid derivatives” (Takeda Chemical Industries, Ltd., priority 1998, dated 2005).

Compared with `O=C(O)CC/C(=N\OCc1ccc(OCc2cn3c(-c4ccccc4)cccc3n2)cc1)c1ccccc1` [Example 57, E-4-[4-(5-phenylimidazo[1,2-a]pyridin-2-ylmethoxy)benzyloxyimino]-4-phenylbutyric acid], `O=C(O)CC/C(=N\OCc1ccc(OCc2cc(-c3ccccc3)on2)cc1)c1ccccc1` [Example 90, E-4-phenyl-4-[4-(5-phenyl-3-isoxazolylmethoxy)benzyloxyimino]butyric acid] is lower in melting point: 160 to 161 °C for the first, 100 to 101 °C for the second.

First: Cc1oc(-c2ccccc2)nc1COc1ccc(CO/N=C(\CCCCC(=O)O)c2ccccc2)cc1 [Example 60, E-6-[4-(5-methyl-2-phenyl-4-oxazolylmethoxy)benzyloxyimino]-6-phenylhexanoic acid]
Second: Cc1oc(-c2ccccc2)nc1COc1ccc(CO/N=C(/CCCCC(=O)O)c2ccccc2)cc1 [Example 61, Z-6-[4-(5-methyl-2-phenyl-4-oxazolylmethoxy)benzyloxyimino]-6-phenylhexanoic acid]
The melting point of the first is higher: 112 to 113 °C for the first, 101 to 102 °C for the second.

Compared with `Cc1oc(-c2ccccc2)nc1COc1ccc(CO/N=C2\CC(C(=O)O)c3ccccc32)cc1` (centres unmarked) [Example 62, E-3-[4-(5-methyl-2-phenyl-4-oxazolylmethoxy)benzyloxyimino]-1-indancarboxylic acid], `Cc1oc(-c2ccccc2)nc1COc1ccc(CO/N=C(\CC(N)=O)c2ccccc2)cc1` [Example 111, E-3-[4-(5-methyl-2-phenyl-4-oxazolylmethoxy)benzyloxyimino]-3-phenylpropanamide] is higher in melting point: 148 to 149 °C for the first, 164 to 165 °C for the second.

First: Cc1oc(-c2ccccc2)nc1COc1ccc(CO/N=C(\CCC(=O)O)c2ccccn2)cc1 [Example 64, E-4-[4-(5-methyl-2-phenyl-4-oxazolylmethoxy)benzyloxyimino]-4-(2-pyridyl)butyric acid]
Second: Cc1oc(-c2ccccc2)nc1COc1ccc(CO/N=C(\CCC(=O)O)c2cccnc2)cc1 [Example 70, E-4-[4-(5-methyl-2-phenyl-4-oxazolylmethoxy)benzyloxyimino]-4-(3-pyridyl)butyric acid]
The melting point of the first is lower: 116 to 117 °C for the first, 158 to 159 °C for the second.

Compared with `Cc1oc(-c2ccccc2)nc1COc1ccc(CO/N=C(/CCC(=O)O)c2ccco2)cc1` [Example 68, Z-4-(2-furyl)-4-[4-(5-methyl-2-phenyl-4-oxazolylmethoxy)benzyloxyimino]butyric acid], `Cc1oc(-c2ccccc2)nc1COc1ccc(CO/N=C(\CCC(=O)O)c2ccco2)cc1` [Example 72, E-4-(2-furyl)-4-[4-(5-methyl-2-phenyl-4-oxazolylmethoxy)benzyloxyimino]butyric acid] is lower in melting point: 131 to 133 °C for the first, 124 to 125 °C for the second.

First: Cc1oc(-c2ccccc2)nc1COc1ccc(CO/N=C(\CCC(=O)O)c2ccncc2)cc1 [Example 71, E-4-[4-(5-methyl-2-phenyl-4-oxazolylmethoxy)benzyloxyimino]-4-(4-pyridyl)butyric acid]
Second: Cc1oc(-c2cccs2)nc1COc1ccc(CO/N=C(\CCC(=O)O)c2ccccc2)cc1 [Example 97, E-4-[4-[5-methyl-2-(2-thienyl)-4-oxazolylmethoxy]benzyloxyimino]-4-phenylbutyric acid]
The melting point of the first is higher: 161 to 162 °C for the first, 142 to 143 °C for the second.

First: Cc1oc(-c2ccccc2)nc1COc1ccc(CO/N=C(\CCCCCCCC(=O)O)c2ccccc2)cc1 [Example 73, E-9-[4-(5-methyl-2-phenyl-4-oxazolylmethoxy)benzyloxyimino]-9-phenylnonanoic acid]
Second: Cc1oc(-c2ccccc2)nc1COc1ccc(CO/N=C(\CCCCCC(=O)O)c2ccccc2)cc1 [Example 115, E-7-[4-(5-methyl-2-phenyl-4-oxazolylmethoxy)benzyloxyimino]-7-phenylheptanoic acid]
The melting point of the first is lower: 67 to 68 °C for the first, 84 to 85 °C for the second.

Compared with `Cc1oc(-c2ccccc2)nc1COc1cccc(CO/N=C(\CCCCC(=O)O)c2ccccc2)c1` [Example 76, E-6-[3-(5-methyl-2-phenyl-4-oxazolylmethoxy)benzyloxyimino]-6-phenylhexanoic acid], `Cc1oc(-c2ccccc2)nc1COc1cccc(CO/N=C(\CCC(=O)O)c2ccccc2)c1` [Example 77, E-4-[3-(5-methyl-2-phenyl-4-oxazolylmethoxy)benzyloxyimino]-4-phenylbutyric acid] is lower in melting point: 114 to 115 °C for the first, 108 to 109 °C for the second.

Compared with `Cc1oc(-c2ccccc2)nc1COc1ccc(CO/N=C(\CCCCC(N)=O)c2ccccc2)cc1` [Example 82, E-6-[4-(5-methyl-2-phenyl-4-oxazolylmethoxy)benzyloxyimino]-6-phenylhexanamide], `Cc1oc(-c2ccccc2)nc1COc1ccc(CO/N=C(\CCCCCCC(=O)O)c2ccc(Cl)cc2)cc1` [Example 123, E-8-(4-chlorophenyl)-8-[4-(5-methyl-2-phenyl-4-oxazolylmethoxy)benzyloxyimino]octanoic acid] is lower in melting point: 95 to 96 °C for the first, 90 to 91 °C for the second.

First: O=C(O)CC/C(=N\OCc1ccc(OCc2cc(-c3ccccc3)no2)cc1)c1ccccc1 [Example 87, E-4-phenyl-4-[4-(3-phenyl-5-isoxazolylmethoxy)benzyloxyimino]butyric acid]
Second: O=C(O)CC/C(=N\OCc1ccc(OCc2csc(-c3ccccc3)n2)cc1)c1ccccc1 [Example 108, E-4-phenyl-4-[4-(2-phenyl-4-thiazolylmethoxy)benzyloxyimino]butyric acid]
The melting point of the first is lower: 96 to 97 °C for the first, 104 to 105 °C for the second.

Compared with `Cc1sc(-c2ccccc2)nc1COc1ccc(CO/N=C(\CCC(=O)O)c2ccccc2)cc1` [Example 91, E-4-[4-(5-methyl-2-phenyl-4-thiazolylmethoxy)benzyloxyimino]-4-phenylbutyric acid], `O=C(O)CC/C(=N\OCc1ccc(OCc2ccccc2)cc1)c1ccccc1` [Example 98, E-4-(4-benzyloxybenzyloxyimino)-4-phenylbutyric acid] is lower in melting point: 99 to 100 °C for the first, 86 to 87 °C for the second.

Compared with `Cc1oc(-c2ccco2)nc1COc1ccc(CO/N=C(\CCC(=O)O)c2ccccc2)cc1` [Example 94, E-4-[4-[2-(2-furyl)-5-methyl-4-oxazolylmethoxy]benzyloxyimino]-4-phenylbutyric acid], `Cc1oc(-c2ccco2)nc1COc1ccc(CO/N=C(\CCCCC(=O)O)c2ccccc2)cc1` [Example 132, E-6-[4-[2-(2-furyl)-5-methyl-4-oxazolylmethoxy]benzyloxyimino]-6-phenylhexanoic acid] is lower in melting point: 124 to 125 °C for the first, 112 to 113 °C for the second.

First: O=C(O)CC/C(=N\OCc1ccc(OCc2cn3ccccc3n2)cc1)c1ccccc1 [Example 101, E-4-[4-(imidazo[1,2-a]pyridin-2-ylmethoxy)benzyloxyimino]-4-phenylbutyric acid]
Second: O=C(O)CC/C(=N\OCc1ccc(OCc2ccc3ccccc3n2)cc1)c1ccccc1 [Example 104, E-4-phenyl-4-[4-(2-quinolinylmethoxy)benzyloxyimino]butyric acid]
The melting point of the first is higher: 180 to 182 °C for the first, 133 to 134 °C for the second.

First: O=C(O)CC/C(=N\OCc1ccc(OCc2coc(-c3ccccc3)n2)cc1)c1ccccc1 [Example 102, E-4-phenyl-4-[4-(2-phenyl-4-oxazolylmethoxy)benzyloxyimino]butyric acid]
Second: O=C(O)CCCC/C(=N\OCc1ccc(OCc2noc(-c3ccccc3)n2)cc1)c1ccccc1 [Example 136, E-6-phenyl-6-[4-(5-phenyl-1,2,4-oxadiazol-3-ylmethoxy)benzyloxyimino]hexanoic acid]
The melting point of the first is higher: 144 to 145 °C for the first, 88 to 89 °C for the second.

First: COc1ccc(/C(CCCCCCC(=O)O)=N/OCc2ccc(OCc3nc(-c4ccccc4)oc3C)cc2)cc1 [Example 118, E-8-(4-methoxyphenyl)-8-[4-(5-methyl-2-phenyl-4-oxazolylmethoxy)benzyloxyimino]octanoic acid]
Second: Cc1oc(-c2ccccc2)nc1COc1ccc(CO/N=C(/CCCCCCC(=O)O)c2ccc(Cl)cc2)cc1 [Example 124, Z-8-(4-chlorophenyl)-8-[4-(5-methyl-2-phenyl-4-oxazolylmethoxy)benzyloxyimino]octanoic acid]
The melting point of the first is higher: 69 to 70 °C for the first, 54 to 57 °C for the second.

First: Cc1oc(-c2ccccc2)nc1COc1ccc(CO/N=C(\CCCCCCC(=O)O)c2ccc(F)cc2)cc1 [Example 125, E-8-(4-fluorophenyl)-8-[4-(5-methyl-2-phenyl-4-oxazolylmethoxy)benzyloxyimino]octanoic acid]
Second: Cc1oc(-c2ccccc2)nc1COc1ccc(CO/N=C(/CCCCCCC(=O)O)c2ccc(F)cc2)cc1 [Example 126, Z-8-(4-fluorophenyl)-8-[4-(5-methyl-2-phenyl-4-oxazolylmethoxy)benzyloxyimino]octanoic acid]
The melting point of the first is higher: 79 to 80 °C for the first, 56 to 57 °C for the second.

First: O=C(O)CCCCCC/C(=N\OCc1ccc(OCc2noc(-c3ccccc3)n2)cc1)c1ccccc1 [Example 128, E-8-phenyl-8-[4-(5-phenyl-1,2,4-oxadiazol-3-ylmethoxy)benzyloxyimino]octanoic acid]
Second: O=C(O)CCCC/C(=N\OCc1ccc(OCc2nc(-c3ccccc3)no2)cc1)c1ccccc1 [Example 138, E-6-phenyl-6-[4-(3-phenyl-1,2,4-oxadiazol-5-ylmethoxy)benzyloxyimino]hexanoic acid]
The melting point of the first is lower: 76 to 77 °C for the first, 91 to 92 °C for the second.

First: Cc1oc(-c2ccco2)nc1COc1ccc(CO/N=C(\CCCCCCC(=O)O)c2ccccc2)cc1 [Example 129, E-8-[4-[2-(2-furyl)-5-methyl-4-oxazolylmethoxy]benzyloxyimino]-8-phenyloctanoic acid]
Second: Cc1oc(-c2cccs2)nc1COc1ccc(CO/N=C(\CCCCCCC(=O)O)c2ccccc2)cc1 [Example 130, E-8-[4-[5-methyl-2-(2-thienyl)-4-oxazolylmethoxy]benzyloxyimino]-8-phenyloctanoic acid]
The melting point of the first is lower: 75 to 77 °C for the first, 106 to 108 °C for the second.

With `Cc1oc(-c2cccs2)nc1COc1ccc(CO/N=C(\CCCCC(=O)O)c2ccccc2)cc1` [Example 135, E-6-[4-[5-methyl-2-(2-thienyl)-4-oxazolylmethoxy]benzyloxyimino]-6-phenylhexanoic acid] the melting point was 101 to 102 °C.

For `Cc1oc(-c2ccccc2)nc1COc1ccc(CO/N=C(/c2ccccc2)C(C)(C)C(=O)O)cc1` [Example 110, Z-2,2-dimethyl-3-[4-(5-methyl-2-phenyl-4-oxazolylmethoxy)benzyloxyimino]-3-phenylpropionic acid], the melting point was 142 to 143 °C (dec.).
